{"source": "patent US20030180735A1", "about": "“Screening method” (priority 1999, published 2003)", "key": {"HeLa cells [1]": {"test_system": "HeLa cells", "assay_type": "cell-based", "conditions": "together with 5 μg/ml cycloheximide, 18 hours, crystal violet", "protocol": "In our system, cells are cultured in 96 well plates in 100 μl of culture medium and are treated in ways known to induce apoptosis. Following an indicated period of time, 10 μl MTT stock solution (5 mg/mi) is added to each culture being assayed and incubated at 37° C. for 4 h. At the end of the incubation period the converted dye is solubilised with acidic-isopropanol (0.04N HCL. Absorbance of converted dye is measured at a wavelength of 570 nm.\nThe following example describes a method to analyse viability of adherent cells, such as HeLa, using chemical stain Crystal Violet. Adherent cells are cultured in the presence of known agents to induce/ modulate the apoptotic process. After a suitable period of time, supernatants are removed by inverting and flicking the plate. Wells are washed twice with PBS and remaining adherent cells are fixed with 100% EtOH and air-dried. To each well is added 100 μl of 1% aqueous Crystal Violet Solution (Sigma). Plates are then incubated at room temperature (RT) for 5 min before washing in tap water. Wells are solubilised in 33% acetic acid and optical density is measured at 570 nm using a plate reader.\nHeLa cells are plated in full culture medium at a concentration of 2×10^4 cells/well of 96 well plate. […] Cells are cultured overnight at 37° C. before analysing for apoptosis using either MTT or crystal violet.\nHeLa cells are plated in full culture medium at a concentration of 2×10^4 cells/well of 96 well plate. […] Cells are cultured overnight at 37° C. before analysing for apoptosis using crystal violet.\nHeLa cells are plated into 96 well plate at a concentration of 2×10^4/well and allowed to adhere for 4 hours Culture medium is then replaced with fresh medium containing the indicated concentrations of TNFα together with 5 μg/ml cycloheximide. Cultures are maintained for a further 18 hours, before measuring apoptosis with crystal violet and reading @570 nm in a plate reader.\nCells are cultured for a further 18 h before staining the remaining adherent cells with crystal violet and measuring absorbance at 570 nm."}, "HeLa cells [2]": {"test_system": "HeLa cells", "test": "HeLa DNA fragmentation (laddering on 2% agarose gel)", "assay_type": "cell-based", "conditions": "TNFα dose range with 5 μg/ml cycloheximide, 18 h", "protocol": "HeLa cells are plated in full culture medium at a concentration of 5×10^5 cells/well of 24 well plate. […] Cells are cultured overnight at 37° C. before being lysed (5×10^6/treatment) in lysis buffer (1M Tris, 10 mM EDTA , 0.8% sarcosine L sulphate) and incubated on ice for 15 min before centrifugation at 12000g. Supernatant is removed and phenol/chloroform extracted. Following precipitation of DNA, pellets are resuspended in Tris/EDTA buffer (TE) containing 100 μg/ml RNAase A and incubated for 2 h @37° C. Proteinase K (100 μg/ml) is then added and sample incubated for a further 18 h before […] of DNA is separated on a 2% agarose gel.\nHeLa cells are plated into 24 well plate at a concentration of 5×10^5/well and allowed to adhere for 4 hours Culture medium is then replaced with fresh medium containing the indicated concentrations of TNFα together with 5 μg/ml cycloheximide. Cultures are maintained for a further 18 h, before isolation of DNA from 5×10^6 cells/treatment (as previously described) and running on a 2% gel."}}, "data": [{"substance": "TNFα", "values": [{"measurement": "amount of HeLa apoptosis vs TNFα concentration", "setting": "HeLa cells [1]", "result": "dose. response"}, {"measurement": "DNA laddering", "setting": "HeLa cells [2]", "result": "DNA fragmentation is seen in all samples treated with TNFα"}]}]}
